# System: SARS-CoV-2 Delta USA/MD-HP05647/2021 (Lineage B.1.617.2)
# Assay: microbe, parasite or virus in culture
# Format: cell-based
# Settings: Severe acute respiratory syndrome coronavirus 2, Vero C1008, 4 h; read-out: Vero E6 Delta CPE/EC50
row,Structure (SMILES),EC50 [nM]
1,CC(C)(C)[C@H](NS(=O)(=O)c1ccc(C(F)(F)F)cc1)C(=O)N1C[C@H]2[C@@H]([C@H]1C(=O)N[C@H](C#N)C[C@@H]1CCNC1=O)C2(C)C [Compound 90],3.4
2,CC(C)(C)c1ccc(S(=O)(=O)N[C@H](C(=O)N2C[C@H]3[C@@H]([C@H]2C(=O)N[C@H](C#N)C[C@@H]2CCNC2=O)C3(C)C)C(C)(C)C)s1 [Compound 117],337
3,CC(C)(C)[C@H](NC(=O)C(F)(F)C(F)(F)Cl)C(=O)N1C[C@H]2[C@@H]([C@H]1C(=O)N[C@H](C#N)C[C@@H]1CCNC1=O)C2(C)C [Compound 80],20.2
4,CC1(C)[C@@H]2[C@@H](C(=O)N[C@H](C#N)C[C@@H]3CCNC3=O)N(C(=O)[C@@H](NC(=O)C(F)(F)F)C34CC(C3)C4)C[C@@H]21 [Compound 50],571
5,CC(C)(C)[C@H](NS(=O)(=O)c1sccc1Cl)C(=O)N1C[C@H]2[C@@H]([C@H]1C(=O)N[C@H](C#N)C[C@@H]1CCNC1=O)C2(C)C [Compound 114],16.4
6,CC(C)(C)[C@H](NC(=O)CC#N)C(=O)N1C[C@H]2[C@@H]([C@H]1C(=O)N[C@H](C#N)C[C@@H]1CCNC1=O)C2(C)C [Compound 33],940
7,CC(C)(C)[C@H](NC(=O)Cc1ccc2c(c1)CCC2)C(=O)N1C[C@H]2[C@@H]([C@H]1C(=O)N[C@H](C#N)C[C@@H]1CCNC1=O)C2(C)C [Compound 82],9.52
8,CC(C)(C)[C@H](NS(=O)(=O)c1ccc(F)s1)C(=O)N1C[C@H]2[C@@H]([C@H]1C(=O)N[C@H](C#N)C[C@@H]1CCNC1=O)C2(C)C [Compound 113],16.6
9,CCNC(=S)N[C@H](C(=O)N1C[C@H]2[C@@H]([C@H]1C(=O)N[C@H](C#N)C[C@@H]1CCNC1=O)C2(C)C)C(C)(C)C [Compound 72],261
10,CC(C)(C)[C@H](NS(=O)(=O)c1cccs1)C(=O)N1C[C@H]2[C@@H]([C@H]1C(=O)N[C@H](C#N)C[C@@H]1CCNC1=O)C2(C)C [Compound 100],36.8
11,CC(C)(C)[C@H](NS(=O)(=O)c1ccns1)C(=O)N1C[C@H]2[C@@H]([C@H]1C(=O)N[C@H](C#N)C[C@@H]1CCNC1=O)C2(C)C [Compound 122],180
12,CC(C)(C)NC(=O)N[C@H](C(=O)N1C[C@H]2[C@@H]([C@H]1C(=O)N[C@H](C#N)C[C@@H]1CCNC1=O)C2(C)C)C(C)(C)C [Compound 87],577
13,CC(C)(C)[C@H](NC(=O)c1cnc2[nH]ccc2c1)C(=O)N1C[C@H]2[C@@H]([C@H]1C(=O)N[C@H](C#N)C[C@@H]1CCNC1=O)C2(C)C [Compound 32],101000
14,CN(C)C(=S)N[C@H](C(=O)N1C[C@H]2[C@@H]([C@H]1C(=O)N[C@H](C#N)C[C@@H]1CCNC1=O)C2(C)C)C(C)(C)C [Compound 77],1540
